By MIC50 is commonly meant the lowest concentration that inhibits either 50% of growth or 50% of the strains tested, depending on the study. Broadly, the MIC90 is the lowest concentration that inhibits either 90% of growth or 90% of the strains tested, depending on the study. As usually defined, the MIC is the least concentration at which growth counts as inhibited.

Values after ≈ are worked out from the molar mass of the structure shown.

Consider 16 molecules from ChEMBL document CHEMBL1649294, “Susceptibilities of 23 Desulfovibrio isolates from humans” (2009).

What all share (assay type): functional
Assay [1] concerns Desulfovibrio sp. Kind of assay: Antimicrobial activity against Desulfovibrio sp. by Etest method.
For assay [2], the system named is Desulfovibrio desulfuricans. Description: Antimicrobial activity against Desulfovibrio desulfuricans Essex 6 by Etest method.
In assay [3] the test system is Desulfovibrio sp. Description: Antimicrobial activity against Desulfovibrio sp. in presence of Sulbactam by Etest method.
The test system of assay [4] is Desulfovibrio piger. Description: Antimicrobial activity against Desulfovibrio piger in presence of Sulbactam by Etest method.
Assay [5] deals with Desulfovibrio fairfieldensis. Kind of assay: Antimicrobial activity against Desulfovibrio fairfieldensis in presence of Sulbactam by Etest method.
The test system of assay [6] is Desulfovibrio piger. Description: Antimicrobial activity against Desulfovibrio piger by Etest method.
Assay [7] concerns Desulfovibrio desulfuricans. Kind of assay: Antimicrobial activity against Desulfovibrio desulfuricans MB in presence of Sulbactam by Etest method.
Assay [8] relates to Desulfovibrio desulfuricans. Description: Antimicrobial activity against Desulfovibrio desulfuricans MB by Etest method.
The subject of assay [9] is Desulfovibrio fairfieldensis. Description: Antimicrobial activity against Desulfovibrio fairfieldensis by Etest method.
The test system of assay [10] is Desulfovibrio desulfuricans. Kind of assay: Antimicrobial activity against Desulfovibrio desulfuricans Essex 6 in presence of Sulbactam by Etest method.
In assay [11] the test system is Desulfovibrio sp. Description: Antimicrobial activity against Desulfovibrio sp. in presence of Tazobactam by Etest method.
The subject of assay [12] is Desulfovibrio piger. Kind of assay: Antimicrobial activity against Desulfovibrio piger in presence of Tazobactam by Etest method.
The test system of assay [13] is Desulfovibrio desulfuricans. Description: Antimicrobial activity against Desulfovibrio desulfuricans Essex 6 in presence of Tazobactam by Etest method.
In assay [14] the test system is Desulfovibrio fairfieldensis. Description: Antimicrobial activity against Desulfovibrio fairfieldensis in presence of Tazobactam by Etest method.
The subject of assay [15] is Desulfovibrio desulfuricans. Description: Antimicrobial activity against Desulfovibrio desulfuricans MB in presence of Tazobactam by Etest method.

Consider `CC1(C)S[C@@H]2[C@H](NC(=O)[C@H](N)c3ccccc3)C(=O)N2[C@H]1C(=O)O` [AMPICILLIN], for which the MIC50 in the assay with Desulfovibrio sp. [1] was determined as 0.75 µg/mL (≈ 2.15 µM); in the assay on Desulfovibrio sp. [3] it was 0.38 µg/mL. Besides, the values for the MIC90 in the assay with Desulfovibrio sp. [1] and in the assay on Desulfovibrio sp. [3] were 8 µg/mL (≈ 22.9 µM) and 6 µg/mL, respectively. The MIC in assay [2] is 0.19 µg/mL (≈ 0.544 µM); in the assay with Desulfovibrio sp. [3] it was 0.06 µg/mL; in the assay on Desulfovibrio piger [4] it was 0.5 µg/mL; in [5] it was 4 µg/mL; with Desulfovibrio piger [6] it was 12 µg/mL (≈ 34.3 µM); in assay [7], 0.064 µg/mL. Besides, the MIC in assay [8] stood at 0.19 µg/mL (≈ 0.544 µM); in assay [9], 4 µg/mL (≈ 11.4 µM); in [10], 0.125 µg/mL.

Take `CCN1CCN(C(=O)N[C@@H](C(=O)N[C@@H]2C(=O)N3C(C(=O)O)=C(CSc4nnnn4C)CS[C@H]23)c2ccc(O)cc2)C(=O)C1=O` [CEFOPERAZONE]: the MIC50 was greater than 256 µg/mL against Desulfovibrio sp. [1] and 4 µg/mL in the assay on Desulfovibrio sp. [3]. Further, the MIC90 against Desulfovibrio sp. [1] and in the assay with Desulfovibrio sp. [3] was greater than 256 µg/mL in each case. Also, the MIC was greater than 16 µg/mL in assay [2]; 1 µg/mL in the assay on Desulfovibrio piger [4]; greater than 24 µg/mL in assay [5]; 12 µg/mL (≈ 18.6 µM) against Desulfovibrio piger [6]; 1 µg/mL in [7]; 12 µg/mL (≈ 18.6 µM) in assay [8]. The results for the MIC in [9] and in [10] were greater than 256 µg/mL and greater than 3 µg/mL, respectively.

With `CO/N=C(\C(=O)N[C@@H]1C(=O)N2C(C(=O)O)=C(COC(C)=O)CS[C@H]12)c1csc(N)n1` [CEFOTAXIME], the MIC50 in the assay on Desulfovibrio sp. [1] was determined as 1.5 µg/mL (≈ 3.29 µM). In addition, the MIC90 against Desulfovibrio sp. [1] was greater than 256 µg/mL. The MIC was 0.047 µg/mL (≈ 0.103 µM) in [2], 1 µg/mL (≈ 2.2 µM) against Desulfovibrio piger [6], 0.5 µg/mL (≈ 1.1 µM) in assay [8] and greater than 0.047 µg/mL in assay [9].

As to `CO[C@@]1(NC(=O)Cc2cccs2)C(=O)N2C(C(=O)O)=C(COC(N)=O)CS[C@@H]21` [CEFOXITIN], the MIC50 with Desulfovibrio sp. [1] is greater than 256 µg/mL. The molecule also displayed an MIC90 against Desulfovibrio sp. [1] greater than 256 µg/mL. The MIC was greater than 256 µg/mL in assay [2], 16 µg/mL (≈ 37.4 µM) in the assay with Desulfovibrio piger [6], greater than 16 µg/mL in [8] and greater than 64 µg/mL in assay [9].

As to `CO/N=C(\C(=O)N[C@@H]1C(=O)N2C(C(=O)[O-])=C(C[n+]3cccc4c3CCC4)CS[C@H]12)c1csc(N)n1` [CEFPIROME], the MIC50 in the assay with Desulfovibrio sp. [1] came to 4 µg/mL (≈ 7.77 µM). The MIC90 in the assay with Desulfovibrio sp. [1] was greater than 256 µg/mL. The MIC is 0.5 µg/mL (≈ 0.972 µM) in [2], 0.75 µg/mL (≈ 1.46 µM) in the assay with Desulfovibrio piger [6], 0.5 µg/mL (≈ 0.972 µM) in [8] and greater than 256 µg/mL in [9].

Take `CC(C)(O/N=C(\C(=O)N[C@@H]1C(=O)N2C(C(=O)[O-])=C(C[n+]3ccccc3)CS[C@H]12)c1csc(N)n1)C(=O)O` [CEFTAZIDIME]: the MIC50 against Desulfovibrio sp. [1] worked out at 6 µg/mL (≈ 11 µM). This molecule also registered an MIC90 in the assay with Desulfovibrio sp. [1] greater than 256 µg/mL. The MIC was greater than 3 µg/mL in assay [2], 3 µg/mL (≈ 5.49 µM) against Desulfovibrio piger [6], 2 µg/mL (≈ 3.66 µM) in assay [8] and greater than 256 µg/mL in assay [9].

Molecule `CC(=O)OCC1=C(C(=O)O)N2C(=O)[C@@H](NC(=O)Cc3cccs3)[C@H]2SC1` [CEPHALOTHIN] displayed an MIC50 against Desulfovibrio sp. [1] greater than 256 µg/mL. In the assay with Desulfovibrio sp. [1], the MIC90 is greater than 256 µg/mL. In addition, the MIC in assay [2] is greater than 3 µg/mL; in the assay on Desulfovibrio piger [6], greater than 96 µg/mL; in assay [8], 2 µg/mL (≈ 5.04 µM); in [9], greater than 256 µg/mL.

With `O=C(N[C@H](CO)[C@H](O)c1ccc([N+](=O)[O-])cc1)C(Cl)Cl` [CHLORAMPHENICOL], the minimal inhibitory concentration (MIC) in the assay with Desulfovibrio sp. [1] came out at 1.5 µg/mL (≈ 4.64 µM); in [2], 1.5 µg/mL (≈ 4.64 µM); in the assay with Desulfovibrio piger [6] it was 1.5 µg/mL (≈ 4.64 µM); in [8] it was 1.5 µg/mL (≈ 4.64 µM); in assay [9], 3 µg/mL (≈ 9.28 µM). Moreover, in the assay with Desulfovibrio sp. [1], the MIC50 is 4 µg/mL (≈ 12.4 µM). In addition, the MIC90 against Desulfovibrio sp. [1] turned out to be 8 µg/mL (≈ 24.8 µM).

In the assay on Desulfovibrio sp. [1], `O=C(O)c1cn(C2CC2)c2cc(N3CCNCC3)c(F)cc2c1=O` [CIPROFLOXACIN] yielded an MIC50 of 0.5 µg/mL (≈ 1.51 µM). Also, the MIC90 in the assay with Desulfovibrio sp. [1] was greater than 32 µg/mL. Moreover, the MIC is 0.19 µg/mL (≈ 0.573 µM) in [2], 0.125 µg/mL (≈ 0.377 µM) in the assay on Desulfovibrio piger [6], 0.125 µg/mL (≈ 0.377 µM) in assay [8] and greater than 32 µg/mL in assay [9].

`CCC[C@@H]1C[C@@H](C(=O)N[C@@H]([C@H]2O[C@H](SC)[C@H](O)[C@@H](O)[C@H]2O)[C@H](C)Cl)N(C)C1` [CLINDAMYCIN] came in with an MIC50 against Desulfovibrio sp. [1] of 0.125 µg/mL (≈ 0.294 µM). Moreover, the MIC90 in the assay on Desulfovibrio sp. [1] is 0.19 µg/mL (≈ 0.447 µM). The MIC in assay [2] is 0.094 µg/mL (≈ 0.221 µM); in the assay with Desulfovibrio piger [6], 0.016 µg/mL (≈ 0.0376 µM); in assay [8] it was 0.094 µg/mL (≈ 0.221 µM); in assay [9], 0.032 µg/mL (≈ 0.0753 µM).

`CC[C@H]1OC(=O)[C@H](C)[C@@H](O[C@H]2C[C@@](C)(OC)[C@@H](O)[C@H](C)O2)[C@H](C)[C@@H](O[C@@H]2O[C@H](C)C[C@H](N(C)C)[C@H]2O)[C@](C)(O)C[C@@H](C)C(=O)[C@H](C)[C@@H](O)[C@]1(C)O` [ERYTHROMYCIN] displayed an MIC50 against Desulfovibrio sp. [1] of 0.5 µg/mL (≈ 0.681 µM). The molecule also had an MIC90 with Desulfovibrio sp. [1] of 1.5 µg/mL (≈ 2.04 µM). For the same molecule, the MIC in [2] amounted to 0.38 µg/mL (≈ 0.518 µM); in the assay with Desulfovibrio piger [6] it was 0.016 µg/mL (≈ 0.0218 µM); in assay [8], 0.38 µg/mL (≈ 0.518 µM); in assay [9], 0.5 µg/mL (≈ 0.681 µM).

Turning to `C[C@H]1COc2c(N3CCN(C)CC3)c(F)cc3c(=O)c(C(=O)O)cn1c23.C[C@H]1COc2c(N3CCN(C)CC3)c(F)cc3c(=O)c(C(=O)O)cn1c23.O` [LEVOFLOXACIN], in the assay with Desulfovibrio sp. [1], the MIC50 amounted to 0.75 µg/mL. Also, in the assay with Desulfovibrio sp. [1], the MIC90 was greater than 32 µg/mL. In addition, the MIC in [2] is 0.25 µg/mL; in the assay with Desulfovibrio piger [6], 0.095 µg/mL; in assay [8], 0.25 µg/mL; in assay [9], greater than 32 µg/mL.

The molecule `C[C@@H](O)[C@H]1C(=O)N2C(C(=O)O)=C(S[C@@H]3CN[C@H](C(=O)N(C)C)C3)[C@H](C)[C@H]12` [MEROPENEM] came in with an MIC50 in the assay on Desulfovibrio sp. [1] of 0.19 µg/mL (≈ 0.495 µM). The same molecule yielded an MIC90 in the assay with Desulfovibrio sp. [1] of 4 µg/mL (≈ 10.4 µM). Also, the MIC in assay [2] amounted to 0.064 µg/mL (≈ 0.167 µM); in the assay with Desulfovibrio piger [6], 0.032 µg/mL (≈ 0.0834 µM); in [8] it was 0.023 µg/mL (≈ 0.06 µM); in assay [9], 2 µg/mL (≈ 5.22 µM).

In the assay with Desulfovibrio sp. [1], `Cc1ncc([N+](=O)[O-])n1CCO` [METRONIDAZOLE] registered an MIC50 of 0.125 µg/mL (≈ 0.73 µM). The molecule also displayed an MIC90 in the assay on Desulfovibrio sp. [1] of 0.25 µg/mL (≈ 1.46 µM). The MIC in [2] was 0.064 µg/mL (≈ 0.374 µM); with Desulfovibrio piger [6], 0.032 µg/mL (≈ 0.187 µM); in [8], 0.016 µg/mL (≈ 0.0935 µM); in assay [9], 0.016 µg/mL (≈ 0.0935 µM).

For the molecule `CN(C)c1ccc(O)c2c1C[C@H]1C[C@H]3[C@H](N(C)C)C(O)=C(C(N)=O)C(=O)[C@@]3(O)C(O)=C1C2=O` [MINOCYCLINE], in the assay on Desulfovibrio sp. [1], the MIC50 is 6 µg/mL (≈ 13.1 µM). Further, in the assay with Desulfovibrio sp. [1], the MIC90 worked out at 24 µg/mL (≈ 52.5 µM). In addition, the minimum inhibitory concentration (MIC) in assay [2] amounted to 2 µg/mL (≈ 4.37 µM); against Desulfovibrio piger [6], 0.19 µg/mL (≈ 0.415 µM); in [8], 3 µg/mL (≈ 6.56 µM); in assay [9], 4 µg/mL (≈ 8.74 µM).

`CCN1CCN(C(=O)N[C@@H](C(=O)N[C@@H]2C(=O)N3[C@@H]2SC(C)(C)[C@@H]3C(=O)O)c2ccccc2)C(=O)C1=O` [PIPERACILLIN]: the MIC50 in the assay on Desulfovibrio sp. [11] and against Desulfovibrio sp. [1] was greater than 256 µg/mL in each case. The MIC90 in the assay with Desulfovibrio sp. [11] and against Desulfovibrio sp. [1] was greater than 256 µg/mL throughout. In addition, the minimal inhibitory concentration (MIC) is greater than 256 µg/mL in the assay with Desulfovibrio piger [12]; greater than 256 µg/mL in assay [2]; greater than 16 µg/mL in [13]; greater than 256 µg/mL in assay [14]; greater than 256 µg/mL against Desulfovibrio piger [6]; greater than 32 µg/mL in assay [8]. Moreover, the MIC was greater than 256 µg/mL in [9] and 32 µg/mL in assay [15].
